Eleven compounds from BindingDB's records for doi:10.1021/jm00043a011 (University of Athens, 1994) can be followed below.

*1 amine or outer side, *2 acyl side, *3 side chain or, on linkers, in order; H or OH if unused. Where a SMILES comes first, the peptide text is derived from it. [ ]: non-standard residue; d: D form. PheΨ(PO2HCH2)Gly = O=C(CCP(=O)(O)[C@H](Cc1ccccc1)N[*:1])[*:2]; X2 = O=C(CCP(=O)(O)[C@@H](Cc1ccccc1)N[*:1])[*:2]; X1 = O=C(CCP(O)(O)=C(Cc1ccccc1)N[*:1])[*:2]; Nle = CCCC[C@H](N)C(=O)O

The nature of the first test: Inhibition of bacterial collagenase from corynebacterium rathaii.
Take `O=C1NCC(=O)N2CCC[C@H]2C(=O)N[C@@H](Cc2ccccc2)P(=O)(O)CCC(=O)N2CCC[C@@H]12`: affinity was put at a Ki of 9 µM. Consider `COC(=O)[C@@H]1CSSC[C@H](NC(C)=O)C(=O)N2CCC[C@H]2C(=O)N[C@H](Cc2ccccc2)P(=O)(O)CCC(=O)N2CCC[C@H]2C(=O)N1`, for which affinity was put at a Ki of 3 µM. In the case of `COC(=O)[C@H]1CSSC[C@@H](NC(C)=O)C(=O)N2CCC[C@@H]2C(=O)N[C@@H](Cc2ccccc2)P(=O)(O)CCC(=O)N2CCC[C@@H]2C(=O)N1`, affinity was put at a Ki of 45 µM. `CCCC[C@@H]1NC(=O)[C@@H]2CCCN2C(=O)CCP(=O)(O)[C@H](Cc2ccccc2)NC(=O)[C@@H]2CCCN2C(=O)CNC1=O`: the Ki (as a rule, the equilibrium dissociation constant of an inhibitor or competing ligand from its target) was 0.18 µM. As to `O=C1NCC(=O)N2CCC[C@H]2C(O)N=C(Cc2ccccc2)P(O)(O)=CCC(=O)N2CCC[C@@H]12` (stereo partly drawn), the inhibition constant (Ki) worked out at 6 µM. The same measure, in the same setting: then `C[C@@H]1NC(=O)[C@@H]2CCCN2C(=O)[C@H](C)NC(=O)CCP(=O)(O)[C@H](Cc2ccccc2)NC(=O)[C@@H]2CCCN2C(=O)CNC1=O` (cyclo(AGP[PheΨ(PO2HCH2)Gly]AP)), with 20 µM; and `C[C@@H]1NC(=O)[C@@H]2CCCN2C(=O)[C@H](C)NC(=O)CCP(=O)(O)[C@@H](Cc2ccccc2)NC(=O)[C@@H]2CCCN2C(=O)CNC1=O` (cyclo(AGP[X2]AP)), with 12 µM; and `CCCC[C@@H]1NC(=O)[C@@H]2CCCN2C(=O)CCP(O)(O)=C(Cc2ccccc2)NC(=O)[C@@H]2CCCN2C(=O)CNC1=O` (cyclo(GP[X1]P[Nle])), with 0.12 µM. `CCCC[C@@H]1NC(=O)[C@@H]2CCCN2C(=O)CCP(=O)(O)[C@H](Cc2ccccc2)NC(=O)[C@@H]2CCCN2C(=O)[C@H](CO)NC1=O` (cyclo([Nle]SP[PheΨ(PO2HCH2)Gly]P)): the Ki was 40 µM. Still for that read-out and setting: then `CCCC[C@@H]1NC(=O)[C@@H]2CCCN2C(=O)CCP(O)(O)=C(Cc2ccccc2)NC(=O)[C@@H]2CCCN2C(=O)[C@H](CO)NC1=O` (cyclo([Nle]SP[X1]P)), with 25 µM; and `CCCCC1NC(=O)[C@H]2CCCN2C(=O)CCP(=O)(O)[C@@H](Cc2ccccc2)NC(=O)[C@@H]2CCCN2C(=O)CCNC1=O` (stereo partly drawn) [(6S,9S,22R)-6-Benzyl-19-butyl-5-hydroxy-5-oxo-1,7,13,17,20-pentaaza-5lambda*5*-phospha-tricyclo[20.3.0.0*9,13*]pentacosane-2,8,14,18,21-pentaone], with 0.09 µM.

The nature of a further test: Binding constant containing a pseudophenylalanine residue.
The compound `CCCCC1NC(=O)[C@H]2CCCN2C(=O)CCP(=O)(O)[C@@H](Cc2ccccc2)NC(=O)[C@@H]2CCCN2C(=O)CCNC1=O` (stereo partly drawn) [(6S,9S,22R)-6-Benzyl-19-butyl-5-hydroxy-5-oxo-1,7,13,17,20-pentaaza-5lambda*5*-phospha-tricyclo[20.3.0.0*9,13*]pentacosane-2,8,14,18,21-pentaone] gave a Ki of 0.09 µM. This counts as double-digit nanomolar.

Test in the next test: as above
The source holds these as a separate data set.
Compound `CCCC[C@@H]1NC(=O)[C@@H]2CCCN2C(=O)CCP(O)(O)=C(Cc2ccccc2)NC(=O)[C@@H]2CCCN2C(=O)CNC1=O` (cyclo(GP[X1]P[Nle])) showed a Ki of 0.12 µM.
